Like-named read-outs stand apart in the source and are kept apart here.
Experiments:
[1] = test system: hepatitis B virus; experiment: In vivo drug efficacy, AAV/HBV mouse model; details: AAV/HBV mouse model, 15, 50, 150 mg/kg BID PO, 28 days
Method: FIG. 7: The level of Hepatitis B virus DNA in plasma; broken line 1 means blank control, 10% solutol aqueous solution was administered quaque die (QD), per os (PO); broken line 2 means that WX-325 was administrated at a dose of 15 mg/kg bis in die (BID) at an interval of 8 hours, per os (PO); the broken line 3 means that WX-325 was administrated at a dose of 50 mg/kg bis in die (BID) at an interval of 8 hours, per os (PO); broken line 5 means that WX-325 was administrated at a dose of 150 mg/kg bis in die (BID) at an interval of 8 hours, per os (PO); broken line 6 means that tenofovir (TDF) of the positive compound was administrated at a dose of 15 mg/kg bis in die (BID) at an interval of 8 hours, per os (PO); LLOQ means lower limit of detection; Note: WX-325 in FIG. 7 means the compound represented by formula (I) of the present invention. […]
Experimental operation: The day of the first administration was designated as day 0, the day before administration was designated as day −1, the day after administration was designated as day 1, and so on. […] The content of HBV DNA, HBeAg and HBsAg were detected using the serum. […] Both drugs were administered for 28 days, and blood samples were taken on day 3, 7, 10 and 28 after administration, and the level of HBV DNA in plasma was detected by qPCR. […]

[2] = Pharmacokinetics of oral administration and intravenous injection in SD rats; assay type: in vivo; details: male, rat, plasma
Method: 2. Study on the Pharmacokinetics of Oral Administration and Intravenous Injection of the Compound Represented by Formula (I) in SD Rats The compound represented by formula (I) was mixed with 5% DMSO/55% polyethylene glycol 400/40% aqueous solution, vortexed and sonicated to obtain an approximately clear solution of 1 mg/mL, which was then filtered by a microporous membrane for later use. Male SD rats aged 7 to 10 weeks were selected and the candidate compound solution was administered intravenously at a dose of 1 mg/kg. The compound represented by formula (I) was mixed with 10% solutol aqueous solution, vortexed and sonicated to obtain an approximately clear solution of 1 mg/mL, which was then filtered through a microporous membrane for later use. Male SD rats aged 7 to 10 weeks were selected and the candidate compound solution was orally administered at a dose of 10 mg/kg. Whole blood was collected at a certain period of time to prepare plasma, drug concentration was analyzed by LC-MS/MS method, and pharmacokinetic parameters was calculated by Phoenix WinNonlin software (Pharsight, USA). Note: T1/2 means half-life; Vdss means apparent volume of distribution; Cl means clearance rate; AUC0_last means area below the drug-time curve; Tmax means peak time; Cmax means peak concentration; F % means oral bioavailability; iv means intravenous injection; PO means oral administration; mpk means mg/kg.

[3] = test system: proteins in human plasma; experiment: Plasma protein binding rate (equilibrium dialysis); assay type: in vitro ADME
Method: Objectives of Experiment: to determine the binding rate of test compound to proteins in human and CD-1 mouse plasma
Experimental operation: 796 μL of blank plasma was taken from human and CD-1 mouse, and 4 μL of test compound working solution (400 μM) or warfarin working solution (400 μM) was added to make the final concentrations of both test compound and warfarin in the plasma sample 2 μM. The sample was mixed thoroughly. The final concentration of DMSO in the organic phase was 0.5%; 50 μt of plasma samples of test compound and warfarin was pipetted into the sample receiving plate (in triplicate), and immediately the corresponding volume of blank plasma or buffer was added to make the final volume of each sample 100 μL and the volume ratio of plasma:dialysis buffer 1:1. Then 400 μL of stop solution is added to these samples. These samples would be used as TO samples for determination of recovery and stability. […] All samples were analyzed by LC/MS/MS after protein precipitation, and the protein binding rate and recovery rate was calculated with the formula: % Unbound (unbound rate)=100*FC/TC, % Bound (bound rate)=100-% Unbound, % Recovery (recovery rate)=100*(FC+TC)/T0.

For `Cc1cc2n(c1)S(=O)(=O)c1ccc(C(=O)NCC[C@H]3COCCO3)cc1NC2=O` [compound represented by formula (I)], the “in vivo efficacy, HBV DNA in plasma and liver (conclusion in words)” value [1] was “good in vivo efficacy and a dose-dependent effect”, the clearance ([2]; 1 mg/kg, iv 1 mpk) was 8.5 mL/min/kg and the half-life ([2]; 1 mg/kg, iv 1 mpk) was 57 min. It also gave an AUC(0-t) ([2]; 1 mg/kg, iv 1 mpk, read-out: AUC0-last) of 4.82 µM·h, a Vd ([2]; 1 mg/kg, iv 1 mpk, read-out: Vdss) of 0.56 L/kg and a Cmax ([2]; 10 mg/kg, po 10 mpk) of 8.57 µM. For the same compound, the Tmax ([2]; 10 mg/kg, po 10 mpk) was 30 min, the bioavailability ([2]; 10 mg/kg, po 10 mpk) was 65% and the AUC(0-t) ([2]; 10 mg/kg, po 10 mpk, read-out: AUC0-24h) was 31.1 µM·h. For the same compound, the “binding rate to plasma proteins (conclusion in words)” value [3] was “lower binding rate” and the “Binding rate of plasma protein” value ([3]; 2 μM) was 81%.

Reference: patent publication US11952388B2, “Crystal form of tri-cycle compound and application thereof” (FUJIAN AKEYLINK BIOTECHNOLOGY CO., LTD., priority 2018, dated 2024)
